The source of these data is US20240299393A1, “SMALL MOLECULE DISRUPTORS OF PROTEIN INTERACTIONS IN HISTONE DEACETYLASE COMPLEXES” (Dana-Farber Cancer Institute, Inc., priority 2021, published 2024).

For one test, the target named is T1, human SIN3B PAH2 domain (Homo sapiens, UniProt O75182).
T1 construct: Residues 155-241 of human SIN3B (PAH2 domain) were inserted into the pMALC2XE vector for NMR experiments; made in house; host or cells: E. coli BL21 (DE3)
As to the kind of experiment: Ligand-detected NMR, human SIN3B PAH2. The test is classed as binding, H. sapiens. The conditions noted are these: 300 μM compound, 10 μM protein. Here is the method: Ligand-detected NMR experiments: all results were acquired using a 3 mm tube at 25° C. on a Bruker 600 MHz Avance II system equipped with a CPPTCI cryoprobe (Bruker BioSpin Corp.). In all experiments, the concentration of E6R was fixed at 300 μM (from a stock of 25 mM in deuterated DMSO) and the concentration of the protein at 10 μM. The volume of deuterated DMSO was kept constant (1.5%) in all tested samples. Right before the experiments, the compound and protein were diluted in 1×PBS containing 0.1% deuterated dithiothreitol (DTT) to a total volume of 200 μL. Samples were diluted by 5% with D2O for magnetic field lock. Spectra were acquired for ligand only, protein only, and ligand+protein. […] STD experiments [Mayer et al 2001] were acquired with 160 scans, with protein irradiation applied for 3 s at 0 ppm and −20 ppm for the on and off resonance experiments, respectively. On and off resonance spectra were collected and stored separately. One-dimensional CPMG-R2 edited experiments [Hajduk et al 1997] were collected for samples with and without proteins using seven CPMG delays (0, 25, 50, 100, 300, 500, and 800 ms) with four scans per delay. Proton spectra used to measure DLB and chemical shift perturbations in the absence and presence of the proteins were recorded with 16 scans using a recycle delay of 3 s. […]

For test [1], the system named is mouse frontal cortex transcriptome. As to the kind of experiment: RNA-seq of mouse frontal cortex after chronic treatment. The test is classed as in vivo. Here is the method:
For the pilot RT-qPCR experiment, in addition to the vehicle condition (ethanol 100%/kolliphor/saline 0.9% in a proportion of 1:1:14.4; for the 50 mg/kg dose, 14 μL NaOH 1M were also added), three doses (mg/kg) of E6R were tested: 5, 15, and 50, with 4 (vehicle) or 3 (E6R) animals per group. A dose of 50 mg/kg was picked to conduct further experiments. For the RNA-Seq experiment, E6R was dissolved in a vehicle solution containing saline 55% v/v, DMSO 34% v/v, ethanol 5% v/v, kolliphor EL (Sigma-Aldrich, MO, USA) 5% v/v, NaOH 1M 1% v/v. The vehicle group received the same solution. Animals were injected daily by intraperitoneal (I.P.) injection with 5 μL/g of the solution (50 mg/kg of the drug or vehicle) at 11 am for 10 days. Animal wellness was verified by daily visual inspection and weighing. […] On the 11th day, animals were sacrificed by bleeding via heart puncture under carbon dioxide anesthesia. The brains were quickly removed and the bilateral frontal cortex (bregma 1.90 to 1.40 mm) was dissected followed by total RNA extraction. The spleens were also collected in the pilot RT-qPCR experiments.
Qiagen™ RNeasy mini kits (Valencia, CA) were used following the manufacturer's protocol. Extracted RNA was further purified using Qiagen™ RNeasy Mini columns to eliminate any trace of DNA, and dissolve in nuclease-free water. Purity of the RNA preparation was determined as the 260/280 nm ratio with expected values between 2 and 2.3. Samples were stored at −80° C. before being used for RT-qPCR (pilot experiment), or shipped to the GENEWIZ company on dry ice for library construction and RNA sequencing.
RNA integrity (RIN) and yield were assessed on an Agilent 2100 Bioanalyzer, and samples with RIN larger than 7 were selected. Prior to the RNA-Seq, ribosomal RNA was depleted from the samples using the RiboMinus™ Human/Mouse Transcriptome Isolation Kit (Thermo Fisher Scientific, Waltham, MA). All samples were sequenced on an Illumina Hi-Seq sequencer. ˜29 million 50 bp single-end reads per sample were obtained. Sequencing adapters were removed using Trimmomatic v.0.33 [Bolger et al 2014]. Quality control at each processing step was performed using the FastQC tool v0.11.2 (quality base calls, GC content distribution, duplicate levels, complexity level) [Andrews 2010]. The Mouse GRCm38/mm10 reference genome was obtained from UCSC Genome Browser Gateway (http://hgdownload.soe.ucsc.edu/goldenPath/mm10/bigZips/chromFa.tar.gz), and the corresponding gene annotation file was obtained from Ensemble (ftp://ftp.ensembl.org/pub/release-83/gtf/mus_musculus/Mus_musculus.GRCm38.83.gtf.gz) on Feb. 20, 2016. Only autosomes, mitochondrial, and sex chromosomes were used. Reads were aligned using the subread v.1.6.2 aligner [Liao et al 2013]. Gene counts were obtained for each sample based on the last […] version of Ensembl transcriptome (v.87) using the featureCounts v.1.2.6 software [Liao et al 2014]. RNA-Seq counts were preprocessed and analyzed for differential expression using the edgeR v.3.24.3 [Robinson et al 2010] R package. P-values for differentially expressed genes were corrected using a false discovery rate (FDR) multiple testing correction method [Benjamini & Hochberg 1995]. Functional enrichment analysis (GO, KEGG) was performed using enrichr [Chen et al 2013]. Enrichment analysis using custom signatures was performed using hypergeometric test in the clusterProfiler v.3.10.1 R package [Yu et al 2012]. […]

The subject of test [2] is HDAC class I and II enzymes (live yeast cells, HeLa nuclear extract, semi-purified human HDAC1). As to the kind of experiment: HDAC-Glo I/II luminescence HDAC enzymatic assay. It is filed as biochemical, S. cerevisiae; human. The conditions noted are these: three HDAC sources.
Experimental: The HDAC-Glo I/II screening system (Promega, cat #G6430) was adapted to measure the effect of compounds on the enzymatic activity of human and yeast HDAC sources. […] FLAG-HDAC1 was eluted from anti-FLAG beads before running the assay, using a FLAG peptide. Nuclear extracts from human HeLa cells were provided in the assay kit. HDAC enzymatic activity was measured following the manufacturer's protocol. Briefly, linear ranges of the assay were determined by measuring luminescence signals, in a serial dilution manner, for semi-purified human HDAC1, or live yeast cells, diluted in the HDAC-Glo I/II buffer. For HeLa nuclear extracts, the manufacturer provided this information in the assay kit. For the different HDAC sources, dilution factors corresponding to signals in the linear ranges were used. To test the effect of compounds (three or four replicates) on HDAC enzymatic activity, equal volumes of HDAC sources (5 μL), and inhibitors (5 μL) were added to the different wells of a white, flat bottom 384-well plate. The plate was then briefly centrifuged with a tabletop centrifuge, and gently shaken for 1 min at 700 rpm. The plate was tightly sealed to prevent evaporation, and incubated at room temperature for 1 h. […] Luminescence signals were measured using a TriStar luminometer from Berthold Technologies, with 1 s integration time per sample. […]

SMILES strings stand for the structures. “Also recorded” adds a separate entry of the source.

T1 sequence (O75182 155-241): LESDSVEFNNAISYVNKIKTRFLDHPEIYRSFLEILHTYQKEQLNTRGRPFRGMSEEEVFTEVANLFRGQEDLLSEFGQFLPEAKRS

As to `C[C@@H](NC(=O)c1c(O)n2ccccc2nc1=O)c1ccccc1` [E6R, 4-hydroxy-2-oxo-N—((R)-1-phenylethyl)-3,4-dihydro-2H-pyrido[, 2-a]pyrimidine-3-carboxamide], the “binding to human SIN3B PAH2 by NMR” value at human SIN3B PAH2 domain was “could bind; also recorded: virtually identical to those of yeast Sin3 PAH2”. Further, the “fewer transcriptomic changes compared to conditional Hdac2 deletion” value in test [1] (50 mg/kg ten days) is listed as “approximately 80 fold”. For the same molecule, the “differentially expressed genes between HDAC2 cKO+vehicle and HDAC2 cKO+compound” value in test [1] (HDAC2 cKO mice, 50 mg/kg) is given as “Nine”. Further, in test [1] (WT mice, 50 mg/kg I.P. daily 10 days, FDR=0.3, p<0.05, Example 9), the “genes with altered expression in mouse FC relative to WT+vehicle” value was 39 genes. Besides, the “genes significantly affected in the FC” value in test [1] (WT mice, 50 mg/kg ten days, Example 11) worked out at 48 genes. In addition, the “Homer1 expression in FC” value in test [1] (WT mice, 50 mg/kg, vs WT+vehicle) is reported as “downregulated”.

As to `CC(/C=C/C(=O)NO)=C\[C@@H](C)C(=O)c1ccc(N(C)C)cc1` [TSA, trichostatin A], in test [2], the “inhibition of HDAC enzymatic activity” value is on record as “systematically reduced HDAC activity”.
